Read-outs that look alike come from different tables or passages of the source.
Assays:
Type in all cases: cell-based
URAT1 [1] = molecular target: T1, URAT1 (Homo sapiens, UniProt Q96S37); experiment: [14C]-urate uptake by URAT1-expressing Xenopus oocytes
T1 sequence (Q96S37 1-553): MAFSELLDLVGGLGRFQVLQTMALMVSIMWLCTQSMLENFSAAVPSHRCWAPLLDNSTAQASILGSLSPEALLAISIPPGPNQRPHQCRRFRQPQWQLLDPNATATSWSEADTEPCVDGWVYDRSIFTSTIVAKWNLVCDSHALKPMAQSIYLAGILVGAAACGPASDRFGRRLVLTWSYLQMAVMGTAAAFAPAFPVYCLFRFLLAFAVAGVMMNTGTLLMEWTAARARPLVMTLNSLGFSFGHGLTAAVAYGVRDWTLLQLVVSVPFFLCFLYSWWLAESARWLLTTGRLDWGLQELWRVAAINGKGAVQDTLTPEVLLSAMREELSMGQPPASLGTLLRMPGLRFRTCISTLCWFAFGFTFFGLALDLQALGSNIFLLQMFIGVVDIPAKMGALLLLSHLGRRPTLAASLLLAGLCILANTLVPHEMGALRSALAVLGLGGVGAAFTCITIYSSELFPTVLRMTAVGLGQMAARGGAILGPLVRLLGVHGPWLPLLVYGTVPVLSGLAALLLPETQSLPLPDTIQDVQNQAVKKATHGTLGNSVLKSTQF
Description: (§1) For uptake experiments, oocytes were washed four times with ND96 medium (pH 7.4) without pyruvate and gentamycin.

OAT4 = molecular target: T2, OAT4 (Homo sapiens, UniProt Q9NSA0); experiment: [14C]-urate uptake by OAT4-expressing Xenopus oocytes; details: for cis-inhibition of OAT4-mediated, maleate trans-stimulated urate uptake: 10 mM extracellular anion; for trans-stimulatory effect of preloaded anion on OAT4-mediated urate uptake: preinjected 50 nL of 100 mmol/L
T2 sequence (Q9NSA0 1-550): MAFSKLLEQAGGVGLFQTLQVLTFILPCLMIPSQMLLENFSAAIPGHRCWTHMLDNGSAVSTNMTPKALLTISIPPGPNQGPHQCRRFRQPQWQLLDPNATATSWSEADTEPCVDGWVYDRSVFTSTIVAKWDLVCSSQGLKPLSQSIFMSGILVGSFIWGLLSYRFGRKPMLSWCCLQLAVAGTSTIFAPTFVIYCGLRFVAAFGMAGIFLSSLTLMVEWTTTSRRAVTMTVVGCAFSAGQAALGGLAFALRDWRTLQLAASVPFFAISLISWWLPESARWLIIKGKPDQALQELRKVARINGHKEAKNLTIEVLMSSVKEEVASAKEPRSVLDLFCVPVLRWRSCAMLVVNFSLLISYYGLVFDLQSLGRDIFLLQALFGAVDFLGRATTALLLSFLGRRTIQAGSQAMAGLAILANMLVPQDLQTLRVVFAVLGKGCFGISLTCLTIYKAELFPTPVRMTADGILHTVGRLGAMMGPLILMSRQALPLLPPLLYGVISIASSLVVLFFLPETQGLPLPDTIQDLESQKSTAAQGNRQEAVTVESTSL
Method: as §1
(A) The uptake of [^14C]‐urate by OAT4‐expressing oocytes was performed in ND96 medium (pH 7.4) at ~25°C for 1 h. Na^+‐dependence was examined by replacing extracellular NaCl by KCl. […] (B) The inhibition of [^14C]‐urate uptake by OAT4 was examined in the presence of extracellular organic anions (for cis‐inhibition) or uricosuric drugs at the indicated concentrations. […] Data are mean ± S.E. with n = 12–15.

OAT10 [2] = molecular target: T3, OAT10 (Homo sapiens, UniProt Q9Y226); experiment: [14C]-urate uptake by OAT10-expressing Xenopus oocytes; details: preloaded 50 nL of 100 mmol/L
T3 sequence (Q9Y226 whole entry): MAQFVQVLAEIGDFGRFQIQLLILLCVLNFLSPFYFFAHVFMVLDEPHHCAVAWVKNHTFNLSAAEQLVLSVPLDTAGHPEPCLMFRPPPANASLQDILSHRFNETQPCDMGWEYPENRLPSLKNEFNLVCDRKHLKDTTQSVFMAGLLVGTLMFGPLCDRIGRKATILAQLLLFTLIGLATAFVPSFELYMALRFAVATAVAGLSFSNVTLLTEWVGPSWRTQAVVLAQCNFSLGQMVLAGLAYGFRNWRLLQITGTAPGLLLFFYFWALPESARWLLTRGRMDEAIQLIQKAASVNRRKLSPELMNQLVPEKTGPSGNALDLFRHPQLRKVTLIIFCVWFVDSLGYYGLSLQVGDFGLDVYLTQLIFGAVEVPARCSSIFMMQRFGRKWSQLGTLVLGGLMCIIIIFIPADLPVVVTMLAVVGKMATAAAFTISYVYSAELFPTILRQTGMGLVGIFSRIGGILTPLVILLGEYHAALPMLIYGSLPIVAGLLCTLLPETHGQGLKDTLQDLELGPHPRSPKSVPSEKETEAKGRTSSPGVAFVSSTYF
Description: as §1
(A) Time course of [^14C]‐urate uptake by control and […] oocytes. […] Inset, western blot analysis of OAT10 protein expressed in oocytes. […] (C) [^14C]‐urate transport properties of OAT10: voltage sensitivity and Na+‐dependence was examined by replacing extracellular NaCl by KCl or LiCl. Existence of urate/Cl^− exchange mechanism or Cl^− dependence or cis‐inhibitory effects of extracellular Cl^− on was verified by [^14C]‐urate uptake via OAT10 in the absence of extracellular Cl^− ion (0 Cl^−). In 0 Cl^− bath, NaCl was replaced by Na‐gluconate (Na‐Gluc), KCl by K‐gluconate (K‐Gluc), MgCl2 by Mg‐gluconate, and CaCl2 by Ca‐gluconate. […] Data are mean ± S.E. with n = 12–15.

GLUT9a = molecular target: T4, GLUT9a (Homo sapiens, UniProt Q9NRM0); experiment: [14C]-urate uptake by GLUT9a-expressing Xenopus oocytes
T4 sequence (Q9NRM0 1-540): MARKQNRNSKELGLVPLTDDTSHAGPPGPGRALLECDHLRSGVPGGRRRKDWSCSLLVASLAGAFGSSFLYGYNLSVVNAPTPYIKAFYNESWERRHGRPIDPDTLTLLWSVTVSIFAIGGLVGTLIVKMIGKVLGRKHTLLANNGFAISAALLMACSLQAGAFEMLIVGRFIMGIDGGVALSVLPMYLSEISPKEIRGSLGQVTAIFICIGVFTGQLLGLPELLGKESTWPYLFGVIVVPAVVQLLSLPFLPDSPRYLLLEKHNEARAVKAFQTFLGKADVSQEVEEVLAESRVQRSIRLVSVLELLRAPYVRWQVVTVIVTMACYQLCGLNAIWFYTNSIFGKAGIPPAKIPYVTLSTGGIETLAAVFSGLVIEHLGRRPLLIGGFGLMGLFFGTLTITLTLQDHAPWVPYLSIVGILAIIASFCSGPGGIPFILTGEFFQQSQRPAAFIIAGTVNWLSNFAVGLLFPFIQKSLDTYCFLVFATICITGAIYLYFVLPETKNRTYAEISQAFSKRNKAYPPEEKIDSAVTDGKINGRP
Description: as §1
We sought to investigate the effect of tranilast on GLUT9a‐mediated [^14C]‐urate uptake in Xenopus laevis oocytes.

URAT1 [3] = molecular target: T1, URAT1; experiment: [14C]-nicotinate uptake by URAT1-expressing Xenopus oocytes; details: for cis-inhibition of URAT1-mediated [14C]-nicotinate uptake by extracellular anion: data not shown
Description: as §1
Data are mean ± S.E. with n = 12–15.

OAT3 = molecular target: T5, OAT3 (Mus musculus, UniProt O88909); experiment: [14C]-urate uptake by OAT3-expressing Xenopus oocytes
T5 sequence (O88909 1-537): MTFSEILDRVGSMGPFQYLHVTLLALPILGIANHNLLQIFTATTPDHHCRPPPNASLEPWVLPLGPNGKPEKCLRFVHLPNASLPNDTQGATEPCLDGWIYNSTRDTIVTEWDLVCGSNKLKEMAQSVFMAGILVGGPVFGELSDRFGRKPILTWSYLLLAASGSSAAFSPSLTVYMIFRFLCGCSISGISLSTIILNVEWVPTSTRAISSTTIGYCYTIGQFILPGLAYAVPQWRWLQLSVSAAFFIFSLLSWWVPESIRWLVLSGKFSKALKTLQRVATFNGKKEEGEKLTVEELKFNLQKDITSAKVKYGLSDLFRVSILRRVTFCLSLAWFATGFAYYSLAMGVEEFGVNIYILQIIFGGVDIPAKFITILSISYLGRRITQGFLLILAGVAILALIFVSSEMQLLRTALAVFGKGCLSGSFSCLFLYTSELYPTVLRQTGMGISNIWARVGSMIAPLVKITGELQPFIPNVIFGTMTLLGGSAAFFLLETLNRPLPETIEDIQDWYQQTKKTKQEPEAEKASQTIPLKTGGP
Method: as §1
The uptake of [^14C]‐urate (40 μmol/L) was performed in ND96 medium (pH 7.4) at ~25°C for 1 h.

OAT10 [4] = molecular target: T3, OAT10; experiment: [14C]-nicotinate uptake by OAT10-expressing Xenopus oocytes; details: preloaded with nonlabeled anion; ND96
Method: as §1
Chloride ion‐dependence was also assessed; in 0 Cl^− bath, NaCl was replaced by Na‐gluconate (Na‐Gluc), KCl by K‐gluconate (K‐Gluc), MgCl2 by Mg‐gluconate, and CaCl2 by Ca‐gluconate. […] Data are mean ± S.E. with n = 12–15.

With `CC(O)C(=O)O` (stereo not shown) [lactate] as the compound, how does the “trans-stimulatory effect of preloaded intracellular anion on URAT1-mediated urate uptake” value (URAT1 [1]) read?
Its value is “did not however detect any significant trans‐stimulatory effect”.

And the “cis-inhibition of URAT1-mediated urate uptake by extracellular organic anion” value (“cis-inhibition … by extracellular organic anion” below) (URAT1 [1]; 10 mM extracellular anion)?
Its value is “not cis‐inhibited”.

`O=C(O)CC(O)(CC(=O)O)C(=O)O` [citrate] was tested. Which “cis-inhibition … by extracellular organic anion” value (URAT1 [1]; 10 mM extracellular anion) did it give?
Its value is “not cis‐inhibited”.

For `O=C(O)/C=C\C(=O)O` [maleate], which “cis-inhibition of OAT4-mediated, maleate trans-stimulated urate uptake” value (OAT4) is on record?
Its value is “efficiently cis‐inhibited”.

And the “trans-stimulatory effect of preloaded anion on OAT4-mediated urate uptake” value (OAT4)?
Its value is “modest trans‐stimulatory effect”.

And the “cis-inhibition … by extracellular organic anion” value (URAT1 [1]; 10 mM extracellular anion)?
Its value is “not cis‐inhibited”.

With `CC(=O)C(=O)O` [pyruvate] as the compound, how does the “cis-inhibition … by extracellular organic anion” value (URAT1 [1]; 10 mM extracellular anion) read?
The value was “not cis‐inhibited”.

For `CC(O)CC(=O)O` (stereo not drawn) [BHB, β‐hydroxy butyrate], which “trans-stimulatory effect of preloaded anion on OAT10-mediated urate uptake” value (OAT10 [2]) is on record?
The value was “modest trans‐stimulatory effect”.

What about the “trans-stimulatory effect of preloaded intracellular anion on URAT1-mediated urate uptake” value (URAT1 [1]) of the same compound?
The value was “did not however detect any significant trans‐stimulatory effect”.

And the “cis-inhibition … by extracellular organic anion” value (URAT1 [1]; 10 mM extracellular anion)?
The value was “not cis‐inhibited”.

Which “Effect of extracellular anion on GLUT9a activity” value (GLUT9a) does the source give for `O=C(O)c1ccccc1O` [salicylate] here?
The value was “no effect”.

And the “cis-inhibition of URAT1-mediated [14C]-nicotinate uptake by extracellular anion” value (URAT1 [3])?
Its value is “cis‐inhibited”.

And the “cis-inhibition … by extracellular organic anion” value (URAT1 [1])?
Its value is “cis‐inhibition”.

What does the source list for `Nc1ccc(C(=O)NCC(=O)O)cc1` [PAH, para‐aminohippurate]?
trans-stimulatory effect of preloaded intracellular anion on URAT1-mediated urate uptake (URAT1 [1]): did not however detect any significant trans‐stimulatory effect; cis-inhibition of URAT1-mediated urate uptake by extracellular organic anion (URAT1 [1]; 10 mM extracellular anion): not cis‐inhibited

How did the “cis-inhibition of URAT1-mediated [14C]-nicotinate uptake by extracellular anion” value (URAT1 [3]) turn out when `O=c1[nH]c(=O)c2[nH]c(=O)[nH]c2[nH]1` [urate] was run?
Its value is “cis‐inhibited”.

For `O=C(O)c1cnccn1` [PZA, pyrazine carboxylate], which “trans-stimulatory effect of preloaded anion on OAT4-mediated urate uptake” value (OAT4) is on record?
Its value is “no significant effects”.

What about the “Effect of extracellular anion on GLUT9a activity” value (GLUT9a; Fig. 2C) of the same compound?
The value was “no effect”.

And the “cis-inhibition of URAT1-mediated [14C]-nicotinate uptake by extracellular anion” value (URAT1 [3])?
The value was “cis‐inhibited”.

What about the “URAT1 [14C]-nicotinate uptake after preloading (trans-stimulation), fold over water-injected control oocytes” value (URAT1 [3]; preloaded anion) of the same compound?
Its value is 19–20 fold.

And the “cis-inhibition of OAT3-mediated urate uptake by extracellular anion” value (OAT3; 10 mmol/L extracellular anion)?
Its value is “almost completely cis‐inhibited”.

What about the “Effect of preloaded intracellular anion on OAT3 [14C]-urate uptake (trans-stimulation)” value (OAT3; preloaded anion) of the same compound?
Its value is “did not have any effect”.

And the “trans-stimulatory effect of preloaded anion on OAT10-mediated urate uptake” value (OAT10 [2])?
The value was “modest trans‐stimulatory effect”.

What about the “cis-inhibition … by extracellular organic anion” value (URAT1 [1]; 10 mM extracellular anion) of the same compound?
The value was “cis‐inhibition”.

And the “URAT1 urate uptake after preloading with anion (trans-stimulation), fold over preloaded control oocytes” value (URAT1 [1]; oocytes preloaded with nonlabeled anion)?
Its value is 70–75 fold.

And the “OAT10 [14C]-nicotinate uptake after preloading, fold over PZA-preloaded control oocytes” value (OAT10 [4])?
The value was 118–120 fold.

With `O=CO` [formate] as the compound, how does the “cis-inhibition … by extracellular organic anion” value (URAT1 [1]) read?
The value was “not cis‐inhibited”.

With `O=C(O)C(=O)O` [oxalate] as the compound, how does the “cis-inhibition … by extracellular organic anion” value (URAT1 [1]; 10 mM extracellular anion) read?
The value was “not cis‐inhibited”.

With `O=C(O)CCC(=O)O` [succinate] as the compound, how does the “cis-inhibition of OAT4-mediated, maleate trans-stimulated urate uptake” value (OAT4) read?
Its value is “much less cis‐inhibition”.

And the “trans-stimulatory effect of preloaded anion on OAT4-mediated urate uptake” value (OAT4)?
The value was “no significant effects”.

And the “cis-inhibition … by extracellular organic anion” value (URAT1 [1])?
Its value is “not cis‐inhibited”.
